Measurements taken from US8529889B2, “Methods and compositions related to the modulation of intercellular junctions” (Massachusetts Institute of Technology, priority 2004, dated 2013).
Entries after “also recorded” stand apart in the source; their conditions may differ.

B1: heparinase III (protein, UniProt Q59289 25-659, looked up)
Heparin-sulfate lyase: QSSSITRKDFDHINLEYSGLEKVNKAVAAGNYDDAAKALLAYYREKSKAREPDFSNAEKPADIRQPIDKVTREMADKALVHQFQPHKGYGYFDYGKDINWQMWPVKDNEVRWQLHRVKWWQAMALVYHATGDEKYAREWVYQYSDWARKNPLGLSQDNDKFVWRPLEVSDRVQSLPPTFSLFVNSPAFTPAFLMEFLNSYHQQADYLSTHYAEQGNHRLFEAQRNLFAGVSFPEFKDSPRWRQTGISVLNTEIKKQVYADGMQFELSPIYHVAAIDIFLKAYGSAKRVNLEKEFPQSYVQTVENMIMALISISLPDYNTPMFGDSWITDKNFRMAQFASWARVFPANQAIKYFATDGKQGKAPNFLSKALSNAGFYTFRSGWDKNATVMVLKASPPGEFHAQPDNGTFELFIKGRNFTPDAGVFVYSGDEAIMKLRNWYRQTRIHSTLTLDNQNMVITKARQNKWETGNNLDVLTYTNPSYPNLDHQRSVLFINKKYFLVIDRAIGEATGNLGVHWQLKEDSNPVFDKTKNRVYTTYRDGNNLMIQSLNADRTSLNEEEGKVSYVYNKELKRPAFVFEKPKKNAGTQNFVSIVYPYDGQKAPEISIRENKGNDFEKGKLNLTLTINGKQQLVLVP
notes: Glycosaminoglycan-degrading enzyme; cleaves the less/unsulfated, heparan sulfate-like regions
B2: heparinase I (protein, UniProt Q05819 22-384, looked up)
Heparin lyase I: QQKKSGNIPYRVNVQADSAKQKAIIDNKWVAVGINKPYALQYDDKLRFNGKPSYRFELKAEDNSLEGYAAGETKGRTELSYSYATTNDFKKFPPSVYQNAQKLKTVYHYGKGICEQGSSRSYTFSVYIPSSFPDNATTIFAQWHGAPSRTLVATPEGEIKTLSIEEFLALYDRMIFKKNIAHDKVEKKDKDGKITYVAGKPNGWKVEQGGYPTLAFGFSKGYFYIKANSDRQWLTDKADRNNANPENSEVMKPYSSEYKTSTIAYKMPFAQFPKDCWITFDVAIDWTKYGKEANTILKPGKLDVMMTYTKNKKPQKAHIVNQQEILIGRNDDDGYYFKFGIYRVGNSTVPVTYNLSGYSETAR
notes: Glycosaminoglycan-degrading enzyme; cleaves HSGAGs at the more sulfated, heparin-like regions

Legend:
[1] = tested on: calu-3 human lung adenocarcinoma epithelial cells; experiment: Tight junction (ZO-1) and actin filament disruption by immunofluorescence and confocal microscopy, calu-3; format: cell-based; conditions: calu-3 cells
Protocol: (§1) Heparinase III (hep III) was made as described previously (Godavarti R et al., 1996); heparinase I (hep I) was a generous gift from Momenta pharmaceuticals (Cambridge, Mass.); chondroitinase ABC (C-ABC) lyase was purchased from Seikagaku (East Falmouth, Mass.). Hep III was added to the apical side of the cells at a concentration of 10 μg/mL; hep I was added at a concentration of 6 μg/mL, and C-ABC was added at 50 μU/mL. The concentration of ethylene glycol tetra acetic acid (EGTA) (Sigma) used was 5 mM. All the enzymes and the EGTA were made up in serum free Eagle's Minimal Essential medium with 2 mM L-glutamine. Heparin solution was made up to a concentration of 15 mM in serum free media and added to the apical side of the cells after removing the cell medium. Ardeparin sodium and ardeparin calcium powder were added to cells at 6 mg/well, and ardeparin solution was made up to a final concentration of 18 mM.
(§2) Cells grown on glass coverslips were fixed with 10% buffered formalin for 10 min. Cells were then permeabilized with 0.5% Triton-100 (Sigma) in Tris Buffer Saline with 1% Tween-20 (TBST) for 15 min. at room temperature. Nonspecific antibody binding was blocked with 0.1% bovine serum albumin (BSA) for 30 min. at room temperature. The cells were incubated with primary antibody at room temperature for 4 hours and washed 3 times with PBS. The cells were then incubated in the appropriate secondary antibody for 1 hour in the dark at room temperature and washed 3 times with PBS.
Calu-3 cells were seeded on gelatin coated coverslips and were allowed to grow for about 4 to 5 days to about 80% confluency. UFH powder was added to the apical side of the cells using an insufflator to ensure homogenous distribution of the powder on the coverslip.

[2] = tested on: 16HBE14O-human virally transformed bronchial epithelial cells; experiment: Tight junction (ZO-1) disruption by immunofluorescence and confocal microscopy, 16HBE14O-; format: cell-based; conditions: 16HBE14O- cells; for disruption of ZO-1 / tight junctions (epithelial permeability): hep III 10 μg/mL, hep I 6 μg/mL, C-ABC 50 μU/mL, EGTA 5 mM, 20 min. at 37° C.
Protocol: as §1, §2
16HBE14O-cells were grown to confluency on fibronectin coated coverslips for 4 to 5 days after seeding. The cells were then incubated with hep III, hep I, C-ABC and EGTA made up to the final concentration described above for 20 min. at 37° C. Using the primary rabbit anti-ZO-1 antibody and the secondary goat anti-rabbit Texas Red antibody, the cells were analyzed by the immunofluorescence and confocal microscopy technique discussed above. […] Localization of the tight junction protein in untreated cells is also shown as a control.

[3] = tested on: caco-2 (human colon adenocarcinoma) cells; experiment: Tight junction disruption in caco-2 cells; format: cell-based
Protocol: as §1, §2

[4] = tested on: MCF-7 (human mammary cancer) cells; experiment: Tight junction disruption in MCF-7 cells; format: cell-based
Protocol: as §1, §2

syndecan-1 = experiment: Syndecan-1 ectodomain shedding, dot immunoassay, 16HBE14O- cells; format: cell-based, human; conditions: hep III 10 μg/mL, hep I 6 μg/mL, C-ABC 50 μU/mL
Protocol: as §1
(§3) Specificity and quantification of the dot immunoassay for shed syndecan-1 and -4 ectodomains has been previously described in detail (Subramanian et al., 1997). In brief, the conditioned media were diluted in buffer A (0.15 M NaCl buffered to pH 4.5 with 50 mM sodium acetate and with 0.1% Triton X-100) and applied to catonic polyvinylidine diflouride-based membranes (Immobilin-N) (Millipore, Bedford, Mass.) under mild vacuum in an immunodot apparatus (V&P Scientific, San Diego, Calif.). […]
(§4) Detection was by the ECL system (Amersham) as described by the manufacturer. Results were quantified by scanning the exposed membrane with a Kodak Image Station.
(§5) 16HBE14O-cells were grown to about 80% confluency in 6 well plates. […] To evaluate the changes in cell number, the cells were trypsinized and counted with a coulter-counter after incubation. […] The membranes were then incubated in mouse anti-syndecan-1 and in the appropriate secondary antibody and were developed and analyzed as described above. […]

syndecan-4 = experiment: Syndecan-4 ectodomain shedding, dot immunoassay, 16HBE14O- cells; format: cell-based, human; conditions: hep III 10 μg/mL, hep I 6 μg/mL, C-ABC 50 μU/mL
Protocol: as §1, §3, §4, §5

Molecule | disruption of ZO-1 / tight junctions (epithelial permeability) [1] | disruption of ZO-1 / tight junctions (epithelial permeability) [2] | disruption of ZO-1 / tight junctions (epithelial permeability) ([2]; listed as C-ABC) | tight junction disruption (epithelial permeability) [3] | tight junction disruption (epithelial permeability) [4] | syndecan-1 ectodomain shedding (syndecan-1) | syndecan-4 ectodomain shedding (syndecan-4) | time for cell line to recover from the effect of the treatment [1] | time for cell line to recover from the effect of the treatment [2] | time for cell line to recover from the effect of the treatment [3] | time for cell line to recover from the effect of the treatment [4] | disruption of ZO-1 / tight junctions (epithelial permeability) ([2]; listed as hep III) | disruption of ZO-1 / tight junctions (epithelial permeability) ([2]; listed as hep I)
chondroitinase ABC [cABC] | more effect than Hep I | more pronounced effect than Hep III | cause different amounts of disruption of the tight junctions | Hep III had more effect on tight junction disruption than cABC and Hep I | Hep III had more effect on tight junction disruption than cABC and Hep I | causes syndecan-1 ectodomain shedding | did not cause an increase in syndecan-4 ectodomain shedding |  |  |  |  |  | 
O=C(O)CN(CCOCCOCCN(CC(=O)O)CC(=O)O)CC(=O)O [EGTA, ethylene glycol tetra acetic acid, reference compound] | caused a disruption of the junctional complex | caused a disruption of the junctional complex; also recorded: cause different amounts of disruption of the tight junctions |  | caused a disruption of the junctional complex | caused a disruption of the junctional complex |  |  | about 8 hours | about 8 hours | about 8 hours | about 8 hours |  | 
B1 | more effect than Hep I | Hep I and cABC had more pronounced effect than Hep III |  | more effect on tight junction disruption than cABC and Hep I | more effect on tight junction disruption than cABC and Hep I | causes syndecan-1 ectodomain shedding | did not cause an increase in syndecan-4 ectodomain shedding |  |  |  |  | cause different amounts of disruption of the tight junctions | 
B2 | Hep III and cABC had more effect than Hep I | more pronounced effect than Hep III |  | Hep III had more effect on tight junction disruption than cABC and Hep I | Hep III had more effect on tight junction disruption than cABC and Hep I | causes syndecan-1 ectodomain shedding | did not cause an increase in syndecan-4 ectodomain shedding |  |  |  |  |  | cause different amounts of disruption of the tight junctions
